Patent US9132126B2, “Phenyl-isoxazole derivatives and preparation process thereof” (priority 2011, dated 2015)
≈ marks a conversion by molar mass, not a printed value. Where “and” joins values, the source holds several entries; their conditions need not be identical. Equal values may be shown once. Read-outs that look alike come from different tables or passages of the source.

Legend:
[1] = tested on: influenza virus (K09) expressing GFP; type: cell-based; parameters: key: ◯ = effective; X = ineffective
[2] = tested on: novel influenza virus (K09); assay: microbe, parasite or virus in culture; type: cell-based; conditions: for EC50: MDCK, 72 h, read-out: Plaque reduction (Experimental Example 2) EC50
[3] = tested on: cell (MDCK) infected with an influenza virus (K09); assay: Cytotoxicity assay using MTT; type: cell-based; conditions: compound 24 hours
Description: (§1) In this experiment, a cell was infected with a virus, and then the virus was directly treated with a compound so as to determine if the virus-infected cell has toxicity. For this, a cell (MDCK) was infected with an influenza virus (K09) for 1 hour, and treated with the compound with different concentrations for 24 hours. Then, the cell was treated with a MTT reagent for 1 hour. After 1 hour, a formazan crystal produced by the MTT reagent was dissolved in DMSO, and the absorbance was measured by an ELISA reader so as to determine CC50.
(§2) measured by MTT assay. A maximum concentration of the compound, at which the number of cells is reduced to half or more compared to that of a control group

[4] = tested on: novel influenza virus (B/Field); assay: microbe, parasite or virus in culture; type: cell-based
[5] = tested on: H1N1 influenza virus (solomon); assay: microbe, parasite or virus in culture; type: cell-based
[6] = Acute toxicity test through oral administration in a rat; type: in vivo; conditions: male SD-Rat, single oral administration, 14 days observation; for LD50 at 14 days: Sprague-Dawley (SD), in vivo
Description: The acute toxicity of the inventive compound was determined through oral administration in a rat. Since the compound is expected to be orally administered in a clinical situation, an oral administration route was selected. A male rat aged 6 weeks (SD-Rat, 220±30 g) was subjected to quarantine, and acclimated for 1 week under a condition of lighting of 12 hours (08:00˜20:00), and luminance of 150-300 Lux at 22±3° C. at a relative humidity of 50±20%, while being freely fed with feed and water. Each of a control group and an experimental group include 8 rats. The control group was orally administered with 0.5% HPMC, and the experimental group was orally administered with a material (different concentrations) suspended in 0.5% HPMC, by using a sonde in an amount in proportion to the measured weight of each individual.
The concentration of the drug administered to the experimental group was set as 2000 mg/kg (the highest concentration for a single dose administration in a non-clinical test), and 1000 mg/kg, and 500 mg/kg (with a common ratio). For 14 days from drug administration, clinical symptoms were observed while the weight change was measured. Test animals that died during the test were subjected to autopsy, and abnormalities of main organs (heart, liver, lung, spleen, kidney, and large intestine) were observed and recorded. On the last day of the test (on the 14th day from the administration), all individuals were subjected to autopsy, and the changes of the organs caused by a test material were observed and compared to those in the control group. In the control group, no rats had died, and abnormalities were not observed through autopsy.
Each group was orally administered in a concentration of 500 mg/kg, 1000 mg/kg, and 2000 mg/kg. For 14 days from the administration, according to the test method, clinical symptoms were observed. […] Also, in the groups administered in various amounts, no individuals died. […] Further, no abnormal responses were observed, and from the autopsy results, no peculiarities were observed.

[7] = Cytotoxicity assay using MTT; type: cell-based; conditions: dog, MDCK cells infected with influenza virus (K09), MDCK cell infected with K09; compound 24 hours; read-out: MTT assay (Experimental Example 3) CC50
Description: as §1, §2

[8] = Influenza A virus, Solomon (H1N1), read-out: EC50

COc1ccccc1N1CCN(C(=O)c2c(-c3ccccc3C(F)(F)F)noc2C)CC1 [Example 4]
GFP reduction (Experimental Example 1) effect [1]: ◯ | Plaque reduction (Experimental Example 2) EC50 [2]: 12.5 to 25 µg/mL | SI value K09 [2]: 3.125 to 12.5 | MTT assay (Experimental Example 3) CC50 [3]: 78.12 to 156.25 µg/mL and 78.125 to 156.25 µg/mL | SI value [4]: 1.563> | EC50 ([4]; B/Field): 50< μg/ml | SI value [5]: 6.25 to 12.5 | EC50 ([5]; Solomon (H1N1)): 12.5 µg/mL (≈ 28.1 µM) | LD50 [6]: 2,000< mg/kg

Cc1onc(-c2cccc(F)c2)c1C(=O)N1CCN(c2ccc(Cl)c(Cl)c2)CC1 [Example 11, (4-(3,4-dichlorophenyl)piperazine-1-yl)(3-(3-fluorophenyl)-5-methylisoxazol-4-yl)methanone]
GFP reduction (Experimental Example 1) effect [1]: ◯ | EC50 [2]: < 0.16 µg/mL | CC50 at 24 h [7]: 287 to 625 µg/mL (≈ 661 to 1440 µM) | SI value ([4]; B/Field, CC50/EC50): 67.529 to 147.058 | EC50 ([4]; unidentified influenza virus): 4.25 µg/mL (≈ 9.79 µM) | EC50 [5, 8]: 0.087 to 0.199 µg/mL (≈ 0.2 to 0.458 µM) | SI value ([5]; Solomon (H1N1), CC50/EC50): 1442.211 to 7183.908 | LD50 at 14 days [6]: > 2000 mg/kg

COc1cccc(N2CCN(C(=O)c3c(-c4cccc(F)c4)noc3C)CC2)c1 [Example 12, (3-(3-fluorophenyl)-5-methylisoxazol-4-yl)(4-(3-methoxyphenyl)piperazine-1-yl)methanone]
GFP reduction (Experimental Example 1) effect [1]: ◯ | SI value K09 ([2]; K09, CC50/EC50): 25 to 50 | EC50 [2]: 3.12 µg/mL (≈ 7.9 µM) | CC50 at 24 h [7]: 78.1 to 156 µg/mL (≈ 198 to 395 µM) | EC50 ([4]; unidentified influenza virus): > 50 µg/mL | EC50 [5, 8]: 0.781 µg/mL (≈ 1.98 µM) | SI value ([5]; Solomon (H1N1), CC50/EC50): 100.032 to 200.064 | LD50 at 14 days [6]: > 2000 mg/kg

Cc1onc(-c2cccc(F)c2)c1C(=O)N1CCN(c2ccccc2O)CC1 [Example 16, (3-(3-fluorophenyl)-5-methylisoxazol-4-yl)(4-(2-hydroxyphenyl)piperazine-1-yl)methanone]
GFP reduction (Experimental Example 1) effect [1]: ◯ | SI value K09 ([2]; K09, CC50/EC50): 200.321 | EC50 [2]: 0.39 µg/mL (≈ 1.02 µM) | CC50 at 24 h [7]: 78.1 µg/mL (≈ 205 µM) | MTT assay (Experimental Example 3) CC50 [3]: 78.125 µg/mL | SI value ([4]; B/Field, CC50/EC50): 3.125 | EC50 ([4]; unidentified influenza virus): 25 µg/mL (≈ 65.5 µM) | EC50 [5, 8]: 0.097 to 0.195 µg/mL (≈ 0.254 to 0.511 µM) | SI value ([5]; Solomon (H1N1), CC50/EC50): 400.641 to 805.412 | LD50 at 14 days [6]: > 2000 mg/kg

Cc1onc(-c2ccccc2OC(F)(F)F)c1C(=O)N1CCN(c2ccc(Cl)c(Cl)c2)CC1 [Example 35, (4-(3,4-dichlorophenyl)piperazine-1-yl)(5-methyl-3-(2-(trifluoromethoxy)phenyl)isoxazol-4-yl)methanone]
GFP reduction (Experimental Example 1) effect [1]: ◯ | EC50 [2]: 0.395 to 0.781 µg/mL (≈ 0.79 to 1.56 µM) | CC50 at 24 h [7]: 312 to 625 µg/mL (≈ 625 to 1250 µM) | SI value ([4]; B/Field, CC50/EC50): 50 to 100 | EC50 ([4]; unidentified influenza virus): 6.25 µg/mL (≈ 12.5 µM) | EC50 [5, 8]: 0.097 to 0.195 µg/mL (≈ 0.194 to 0.39 µM) | SI value ([5]; Solomon (H1N1), CC50/EC50): 1602.564 to 6443.298 | LD50 at 14 days [6]: > 2000 mg/kg

COc1cccc(N2CCN(C(=O)c3c(-c4ccccc4OC(F)(F)F)noc3C)CC2)c1 [Example 36]
GFP reduction (Experimental Example 1) effect [1]: ◯ | SI value K09 ([2]; K09, CC50/EC50): 320< | Plaque reduction (Experimental Example 2) EC50 ([2]; K09, MDCK cell, 72 hours): 1.56 µg/mL | MTT assay (Experimental Example 3) CC50 [3]: 500< μg/ml

COc1cccc(N2CCN(C(=O)c3c(-c4ccccc4Cl)noc3N)CC2)c1 [Example 60, (5-amino-3-(2-chlorophenyl)isoxazol-4-yl)(4-(3-methoxyphenyl)piperazine-1-yl)methanone]
GFP reduction (Experimental Example 1) effect [1]: ◯ | EC50 [2]: 0.195 µg/mL (≈ 0.473 µM) | CC50 at 24 h [7]: > 500 µg/mL | SI value ([4]; B/Field, CC50/EC50): 80< | EC50 ([4]; unidentified influenza virus): 6.25 µg/mL (≈ 15.1 µM) | EC50 [5, 8]: 0.053 to 0.094 µg/mL (≈ 0.128 to 0.228 µM) | LD50 at 14 days [6]: > 2000 mg/kg

Nc1onc(-c2ccccc2OC(F)(F)F)c1C(=O)N1CCN(c2ccc(Cl)c(Cl)c2)CC1 [Example 83]
GFP reduction (Experimental Example 1) effect [1]: ◯ | SI value K09 ([2]; K09, CC50/EC50): 100.2 to 291.75 | Plaque reduction (Experimental Example 2) EC50 ([2]; K09, MDCK cell, 72 hours): 0.65 to 1.5 µg/mL | MTT assay (Experimental Example 3) CC50 [3]: 150.3 to 189.64 µg/mL | LD50 [6]: 2,000< mg/kg

COc1cccc(N2CCN(C(=O)c3c(-c4ccccc4C(F)(F)F)noc3N)CC2)c1 [Example 92]
GFP reduction (Experimental Example 1) effect [1]: ◯ | SI value K09 ([2]; K09, CC50/EC50): 0.32 to 1.59 | Plaque reduction (Experimental Example 2) EC50 ([2]; K09, MDCK cell, 72 hours): 21 to 45 µg/mL | MTT assay (Experimental Example 3) CC50 [3]: 14.62 to 33.52 µg/mL

Nc1onc(-c2ccc(OC(F)(F)F)cc2)c1C(=O)N1CCN(c2ccc(Cl)c(Cl)c2)CC1 [Example 99]
GFP reduction (Experimental Example 1) effect [1]: ◯ | SI value K09 ([2]; K09, CC50/EC50): 0.32 to 1.59 | Plaque reduction (Experimental Example 2) EC50 ([2]; K09, MDCK cell, 72 hours): 21 to 45 µg/mL | MTT assay (Experimental Example 3) CC50 [3]: 14.62 to 33.52 µg/mL

CCOC(=O)C1CCN(C(=O)c2c(-c3ccccc3OC(F)(F)F)noc2N)CC1 [Example 124]
GFP reduction (Experimental Example 1) effect [1]: ◯ | Plaque reduction (Experimental Example 2) EC50 [2]: 3.125 to 6.25 µg/mL | SI value K09 [2]: 50 to 100 | MTT assay (Experimental Example 3) CC50 [3]: 312.5 µg/mL | SI value [4]: 6.25> | EC50 ([4]; B/Field): 50< μg/ml | SI value [5]: 50 | EC50 ([5]; Solomon (H1N1)): 6.25 µg/mL (≈ 14.6 µM) | LD50 [6]: 2,000< mg/kg

CCOC(=O)C1=C[C@@H](OC(CC)CC)[C@H](NC(C)=O)[C@@H](N)C1 [Oseltamivir, reference compound]
GFP reduction (Experimental Example 1) effect [1]: X | EC50 [2]: 0.391 µg/mL (≈ 1.25 µM) | CC50 at 24 h [7]: 625 to 1250 µg/mL (≈ 2000 to 4000 µM) | SI value ([4]; B/Field, CC50/EC50): 200 to 100 | EC50 ([4]; unidentified influenza virus): 6.25 µg/mL (≈ 20 µM) | EC50 [5, 8]: 3.12 to 6.25 µg/mL (≈ 10 to 20 µM) | SI value ([5]; Solomon (H1N1), CC50/EC50): 100 to 400 | LD50 at 14 days [6]: > 2000 mg/kg
